Patent US12091411B2, “IRAK degraders and uses thereof” (Kymera Therapeutics, Inc., priority 2022, dated 2024)
Where two headings read alike, the source gives them in different places.

Biological target: T1, IRAK4 (Homo sapiens, UniProt Q9NWZ3)
T1 construct: Degradation of IRAK4 in OCI-LY10 was quantitatively measured using Meso Scale Discovery technology; endogenous in cells; host or cells: OCI-LY10
T1 sequence (Q9NWZ3 1-460): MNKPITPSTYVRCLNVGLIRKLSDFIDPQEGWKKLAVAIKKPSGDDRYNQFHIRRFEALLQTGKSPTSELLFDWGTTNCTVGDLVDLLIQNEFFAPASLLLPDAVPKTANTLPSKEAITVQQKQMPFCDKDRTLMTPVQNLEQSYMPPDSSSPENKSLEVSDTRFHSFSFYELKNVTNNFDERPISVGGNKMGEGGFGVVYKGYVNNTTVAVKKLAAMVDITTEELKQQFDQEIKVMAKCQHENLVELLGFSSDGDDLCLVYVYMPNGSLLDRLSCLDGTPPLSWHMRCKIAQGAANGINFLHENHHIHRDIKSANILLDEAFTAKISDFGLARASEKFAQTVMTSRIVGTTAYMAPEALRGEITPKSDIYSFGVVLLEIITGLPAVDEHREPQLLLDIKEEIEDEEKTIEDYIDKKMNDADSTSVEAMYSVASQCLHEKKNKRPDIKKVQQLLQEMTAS
Experiment: IRAK4 MSD Degradation in OCI-LY10
Assay type: cell-based
Conditions: OCI-LY10 cells, MSD
Method in brief: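 OCI-LY10 cells exposed to 8-point 1:3 compound series (top 1 to 10 μM) for 4 to 24 h at 37 °C, 5% CO2. Lysate IRAK4 quantified by MSD sandwich immunoassay. DC50 from three-parameter logistic fit, binned A (<0.01 μM) to D (>0.2 μM or not tested).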

[1] = 4 hrs incubation, read-out: IRAK4 degradation in OCI-LY10 at 4 hrs: DC50
[2] = 24 hrs incubation, read-out: IRAK4 degradation in OCI-LY10 at 24 hrs: DC50

Row | Compound | DC50 [1] | DC50 [2]
1 | CN(C[C@H]1CC[C@H](n2cc3cc(NC(=O)c4cccc(C(F)(F)F)n4)c(S(C)(=O)=O)cc3n2)CC1)C1CCN(c2cccc3c2n(C)c(=O)n3C2CCC(=O)NC2=O)CC1F (stereo partly shown) [I-559] | > 200 nM | > 200 nM
2 | CN(C[C@H]1CC[C@H](n2cc3cc(NC(=O)c4cccc(C(F)(F)F)n4)c(S(C)(=N)=O)cc3n2)CC1)C1CCN(c2cccc3c2n(C)c(=O)n3C2CCC(=O)NC2=O)CC1F (stereo partly shown) [I-560] | > 200 nM | > 200 nM
3 | CN(C[C@H]1CC[C@H](n2cc3cc(NC(=O)c4cccc(C(F)(F)F)n4)c([S+](C)[O-])cc3n2)CC1)C1CCN(c2cccc3c2n(C)c(=O)n3C2CCC(=O)NC2=O)CC1F (stereo partly shown) [I-561] | > 200 nM | > 200 nM
4 | COc1ccc2c(c1N1CCC(N(C)C[C@H]3CC[C@H](n4cc(NC(=O)c5cnn6cccnc56)c(C(F)F)n4)CC3)C(F)C1)n(C)c(=O)n2C1CCC(=O)NC1=O (stereo partly shown) [I-563] | > 200 nM | > 200 nM
5 | Cn1c(=O)n(C2CCC(=O)NC2=O)c2cccc(N3CC(F)(F)C34CN(C[C@H]3CC[C@H](n5cc6cc(NC(=O)c7cccc(C(F)(F)F)n7)c(C#N)cc6n5)CC3)C4)c21 (stereo partly shown) [I-564] | > 200 nM | > 200 nM
6 | Cn1c(=O)n(C2CCC(=O)NC2=O)c2cccc(N3CC4(C3)N(C[C@H]3CC[C@H](n5cc6cc(NC(=O)c7cccc(C(F)(F)F)n7)c(C#N)cc6n5)CC3)CC4(F)F)c21 (stereo partly shown) [I-565] | > 200 nM | > 200 nM
7 | Cn1c(=O)n(C2CCC(=O)NC2=O)c2cccc(N3CCC(N4CC5(CCC(n6cc7cc(NC(=O)c8cccc(C(F)(F)F)n8)c(C#N)cc7n6)CC5)C4)C(F)(F)C3)c21 (stereo not shown) [I-566] | > 200 nM | > 200 nM

Second part, the molecule after the results:

Row | DC50 [1] | DC50 [2] | Compound
8 | > 200 nM | > 200 nM | Cn1c(=O)n(C2CCC(=O)NC2=O)c2cccc(N3CCC(F)(CN4CC5(CCC(n6cc7cc(NC(=O)c8cccc(C(F)(F)F)n8)c(C#N)cc7n6)CC5)C4)CC3)c21 (stereo not shown) [I-567]
9 | > 200 nM | > 200 nM | Cn1c(=O)n(C2CCC(=O)NC2=O)c2ccc(C3CCN(C[C@H]4CC[C@H](n5cc6cc(NC(=O)c7cccc(C(F)(F)F)n7)c(C#N)cc6n5)CC4)CC3(F)F)cc21 (stereo partly shown) [I-568]
10 | > 200 nM | > 200 nM | Cn1c(=O)n(C2CCC(=O)NC2=O)c2ccc(C3CCN(C[C@H]4CC[C@H](n5cc6cc(NC(=O)c7cccc(C(F)(F)F)n7)c(C(F)F)cc6n5)CC4)CC3(F)F)cc21 (stereo partly shown) [I-569]
11 | > 200 nM | – | CN(C[C@H]1CC[C@H](n2cc(NC(=O)c3cnn4cccnc34)c(C(F)F)n2)CC1)C1CCN(c2ccc3c(c2)n(C)c(=O)n3C2CCC(=O)NC2=O)CC1(F)F (stereo partly shown) [I-570]
12 | > 200 nM | > 200 nM | Cn1c(=O)n(C2CCC(=O)NC2=O)c2cccc([C@H]3C[C@H](COC4CCN(C[C@H]5CC[C@H](n6cc(NC(=O)c7cnn8ccc(N9C[C@H]%10C[C@@H]9CO%10)nc78)c(C(F)F)n6)CC5)CC4F)C3)c21 (stereo partly shown) [I-571]
13 | > 200 nM | > 200 nM | Cn1c(=O)n(C2CCC(=O)NC2=O)c2cccc([C@H]3C[C@H](CN4CCN(C[C@H]5CC[C@H](n6cc(NC(=O)c7cnn8cccnc78)c(C(F)F)n6)CC5)CC4)C3)c21 (stereo partly shown) [I-572]
14 | > 200 nM | > 200 nM | Cn1c(=O)n(C2CCC(=O)NC2=O)c2cccc([C@H]3C[C@@H]3CN3CCN(C[C@H]4CC[C@H](n5cc(NC(=O)c6cnn7ccc(N8C[C@H]9CC8CO9)nc67)c(C(F)F)n5)CC4)CC3)c21 (stereo partly shown) [I-573]
15 | > 200 nM | > 200 nM | Cn1c(=O)n(C2CCC(=O)NC2=O)c2cccc([C@H]3C[C@](F)(CN4CCN(C[C@H]5CC[C@H](n6cc(NC(=O)c7cnn8ccc(N9C[C@H]%10CC9CO%10)nc78)c(C(F)F)n6)CC5)CC4)C3)c21 (stereo partly shown) [I-574]
16 | > 200 nM | > 200 nM | C[C@@H]([C@H]1C[C@H](c2cccc3c2n(C)c(=O)n3C2CCC(=O)NC2=O)C1)N1CCN(C[C@H]2CC[C@H](n3cc(NC(=O)c4cnn5ccc(N6C[C@H]7CC6CO7)nc45)c(C(F)F)n3)CC2)CC1 (stereo partly shown) [I-575]
